The test system of series [1] is secreted IL6 protein of healthy PBMC. As to the kind of experiment: IL6 ELISA of supernatant of cultured healthy PBMCs. The series is classed as cell-based, human. The following applies: 4-hour 1 mM NR in the presence of MitoDAMP. The protocol:
IL6 ELISA. Isolated PBMCs (4×10^6 cells per sample) from healthy or HF participants were resuspended in RPMI medium containing 10% heat-inactivated FBS and treated with various proinflammatory triggers (Vehicle, MitoDAMP, LPS) and compounds (NR, MCC 950, MitoTempo, or LMT-28) to final PBMC concentrations of 10×10^6 cells per mL. See below for detailed descriptions of the reagents. The samples were incubated in Eppendorf tubes at 37° C. in a 5% CO2 incubator with caps open for times designated in the brief description of drawings. The cultured PBMC samples were centrifuged at 8,000 RPM at room temperature. The supernatant was used for ELISA per the manufacture protocol using R&D Systems human IL6 kit (Cat #DY206-05). The cell pellets were stored in −80° C.
Background: An ELISA detects its analyte on a solid surface through an enzyme-linked reagent.

Series [2] in a line: Randomized trial of NR in HFrEF: exploratory endpoints (6MWD, MLHFQ, echocardiography). Format: in vivo, human. Conditions: Week 12 vs baseline; study not powered. On the procedure: Peripheral Blood Mononuclear Cell (PBMC) Mitochondrial Function. PBMCs were isolated from freshly-collected whole blood by centrifugation in Sepmate™-50 PBMC isolation tubes (STEMCELL Technologies, Vancouver, BC, Canada; Cat. 85450). Isolated PBMCs were resuspended in Seahorse XF® medium (Agilent, Cat. 102353-100) and then plated (10^6 cells/well) onto Seahorse® (Agilent) 24-well plates. PBMC mitochondrial respiratory function was assessed by measuring the oxygen consumption rate (OCR) at baseline and maximal stimulated conditions as described in Zhou B, et al. (J Clin Invest. 2020, 130:6054-6063 (Experimental Example 1)). Exploratory Endpoints. The following endpoints were considered exploratory, as the Study was underpowered to detect differences.
Six minute walk distance (6MWD). Any potential “training” effect (Laboratories ATSCoPSfCPF. ATS statement: guidelines for the six-minute walk test. Am J Respir Crit Care Med. 2002, 166:111-7) for 6MWD results was mitigated by performing a “training” test at the Screening Visit, while the second test, performed at the Randomization Visit was considered the Baseline test.
Echocardiography. Serial echocardiograms were performed using a standardized data collection protocol determined using the TOMTEC Arena Image-Com (TOMTEC Imaging Systems, Unterschleissheim, Germany). All echocardiograms were interpreted by a single observer, blinded to participant clinical data, randomized treatment assignment and echocardiogram temporal sequence. For evaluation of left ventricular systolic function by 2-dimensional (2-D), transthoracic echocardiography, 28 study pairs (NR=18, placebo=10) had evaluable data. For evaluation of left ventricular diastolic function by […] (E/e′), 24 study pairs (NR=17, placebo=7) had evaluable data.
Minnesota Living with Heart Failure Questionnaire (MLHFQ). The MLHFQ was administered to Study participants at the Screening and Randomization visits, as well as at Study visits at Weeks 2, 3, 4, 8 and 12.

A short description of series [3]: Randomized placebo-controlled 12-week trial of NR in clinically-stable HFrEF: safety and tolerability. The series is classed as in vivo, human. From the text:
The remaining 30 participants met all the prespecified inclusion criteria of: 1) Systolic HF (LVEF<40%, as determined by transthoracic echocardiogram) of non-ischemic or ischemic etiologies, 2) clinically stable (no cardiac procedures or hospitalizations for cardiac causes, including HF, ischemia or arrhythmia) within the prior 3 months, 3) ability to perform Study procedures (including study visits, blood draws and 6MWT), 4) willingness/ability to provide informed consent. None had any of the following exclusion criteria: 1) Heart failure with preserved ejection fraction (LVEF>40%), 2) HF etiologies other than non-ischemic or ischemic, 3) cardiac procedures, including, cardiac surgery, PCI, or cardiac device implantation, within the previous 3 months, 4) hospitalizations for cardiovascular causes, including HF, chest pain, stroke/TIA or arrhythmias within the prior 3 months, 5) inability to perform Study visits or procedures (e.g., physical inability to perform 6MWT), 6) unwillingness or inability to provide informed consent, 7) Alanine transaminase (ALT)>×3 upper limit of normal, hepatic insufficiency or active liver disease, 8) recent history of acute gout, 9) chronic renal insufficiency with serum creatinine ≥2.5 mg/dl, 10) pregnant or likely to become pregnant, 11) significant co-morbidity likely to cause death within 6 months, 12) significant history of active substance abuse within the previous 5 years, 13) current participation in a clinical trial of a study drug or intervention, and 14) prior intolerance to NR precursors, including niacin or nicotinamide. Follow-up was completed on all 30 participants. Study medication was discontinued in one participant due to gastrointestinal intolerance, but they completed all follow-up visits and procedures. The final participant refused to complete any study visits or procedures after the Week 0 (Randomization Visit), but their vital status was confirmed at the end of the Study. No participants were excluded from analysis, which followed the principal of intention-to-treat. The standardized method for characterizing adverse events employed in the UW Clinical Trials Unit is the Common Terminology Criteria for Adverse Events v3.0 (CTCAE). There were 18 protocol deviations.
Study Design: The overall Study Design is depicted graphically in FIG. 15. Participant clinic visits, medication dispensing and data collection were performed on the Translational Research Unit (TRU) at the University of Washington (UW). […] History included assessment with the Minnesota Living with Heart Failure Questionnaire (MLHFQ), under license from the University of Minnesota (Minneapolis, Minn.).
Participants were randomized to NR or placebo at a 2:1 allocation ratio by the University of Washington Investigational Drug Service, which assigned Study IDs and dispensed study medications.
At Week 0 (Randomization), participants underwent history, repeat 6MWD assessment and baseline transthoracic echocardiogram (FIG. 15). NR or matching placebo were started at the initial dose of 250 mg orally twice daily, then up-titrated by 250 mg twice daily each week to a final dose of 1000 mg twice daily by Week 3. Participants were continued on the 1000 mg twice daily dose until the final clinic visit on Week 12. Blood draws for study labs, including levels of NR and NAD were obtained at Weeks 0, 2, 4 and 12. Medications were dispensed at Weeks 0, 2, 4 and 8, with pill counts performed at Weeks 2, 4, 8 and 12. A telephone visit was performed at Week 6. The final echocardiogram and PBMC mitochondrial respiration assays were performed at Week 12. Study labs were performed by the UW Research Testing Service, except for NR and NAD+ assays, which were performed by the Pharmacokinetics Laboratory, Department of Pharmaceutics, UW School of Pharmacy. Procedures for blood collection and processing, as well as NR and NAD+ assay procedures, have been described previously (Airhart S E, et al., PLoS One. 2017, 12:e0186459).

These results are taken from US20230263817A1, “HIGH DOSE NICOTINAMIDE ADENINE DINUCLEOTIDE (NAD) PRECURSOR REGIMENS FOR REDUCTION OF INFLAMMATION IN HUMAN PATIENTS WITH PREEXISTING INFLAMMATION” (University of Washington, priority 2021, published 2023).

Consider `NC(=O)c1ccc[n+]([C@@H]2O[C@H](CO)[C@@H](O)[C@H]2O)c1` [NR, nicotinamide riboside], for which, in series [1], the IL6 secretion entry was “reduction”. In series [2], the “functional capacity, 6-minute walk test distance, NR vs placebo” value is on record as “No on-trial differences between groups”; the “left ventricular diastolic function (E/e′), NR vs placebo” value is “No on-trial differences between groups”; the “left ventricular systolic function, 2D-LVEF, NR vs placebo” value is “No on-trial differences between groups”; the “quality of life, MLHFQ score, NR vs placebo” value was “No on-trial differences between groups”. Moreover, the “total AEs reported on-trial” value in series [3] (20-participant NR group) is 63. Further, the “treatment-emergent laboratory abnormalities, NR vs placebo” value in series [3] (HFrEF, 12 weeks) is recorded as “no significant differences”. In addition, the “treatment-emergent adverse events (AEs), NR vs placebo” value in series [3] (HFrEF, up to 1000 mg twice daily, 12 weeks) is on record as “no between-group differences”. Moreover, in series [3] (dose up to 1000 mg twice daily, total treatment duration of 12 weeks), the safety and tolerability result was “well-tolerated”. Also, the out-of-range lab values result in series [3] (patients randomized to NR) is given as “creatinine greater than 1.5× but less than 3× baseline on 2 occasions in 1 patient”. Moreover, the “percentages of dispensed capsules taken (range)” value in series [3] (returned pill counts, NR group) is 97 (91-100) %.
